System: collagen-induced arthritis DBA/1J mouse model
Test: murine model of collagen-induced arthritis, Arthritic Index (AI) scoring
Assay type: in vivo
Conditions: #4 and #10 100 μL topical patch, ENBREL 3 mg/kg subcutaneous

Substance: ENBREL®
- rate of disease progression (overall arthritis severity, FIG. 2) (14 days of daily treatment): swiftly arrested
- reduction in arthritis severity score (AI) (after 14 days of daily treatment, compared to Group 2 (diseased, vegetable oil)): 71%

Reference: patent US11738062B2, “Herbal medicine extracts and uses and methods of preparation thereof” (ALPHA OASIS LLC, priority 2018, dated 2023)
